Data published in patent US7105675B2, “Pyridomorphinans, thienomorphinans and use thereof” (Southern Research Institute, priority 1999, dated 2006).
Where two headings read alike, the source gives them in different places.

Columns and labels:
μ opioid receptor = molecular target: T1, μ opioid receptor (Rattus norvegicus, UniProt P33535); experiment: Radioligand binding, mu sites, displacement of [3H]DAMGO in rat brain membranes
T1 construct: Rat membranes were prepared each day using a partially thawed frozen rat brain; from tissue; host or cells: rat brain membranes
T1 sequence (P33535 whole entry): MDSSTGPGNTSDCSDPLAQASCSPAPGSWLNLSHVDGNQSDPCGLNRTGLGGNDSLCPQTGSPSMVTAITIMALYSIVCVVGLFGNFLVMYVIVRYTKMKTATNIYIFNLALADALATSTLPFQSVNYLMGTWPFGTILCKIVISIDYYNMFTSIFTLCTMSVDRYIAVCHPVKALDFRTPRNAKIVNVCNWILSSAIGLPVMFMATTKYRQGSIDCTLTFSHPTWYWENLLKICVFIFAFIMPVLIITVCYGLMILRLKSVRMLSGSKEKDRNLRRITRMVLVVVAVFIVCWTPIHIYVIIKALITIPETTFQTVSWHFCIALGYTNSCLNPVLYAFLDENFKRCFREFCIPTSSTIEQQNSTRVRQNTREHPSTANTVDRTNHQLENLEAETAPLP
Procedure: (§1) Radioligand Binding Assays. Mu binding sites were labeled using [^3H]DAMGO (1–3 nM). Rat membranes were prepared each day using a partially thawed frozen rat brain which was homogenized with a polytron in 10 mL/brain of ice cold 10 mM Tris-HCl, pH 7.0. Membranes were then centrifuged twice at 30,000 g for 10 min and resuspended with ice-cold buffer following each centrifugation. After the second centrifugation, the membranes were resuspended in 50 mM Tris-HCl, pH 7.4 (50 mL/brain) at 25° C. Incubations proceeded for 2 h at 25° C. in 50 mM Tris-HCl, pH 7.4, along with a protease inhibitor cocktail (PIC). The nonspecific binding was determined using 20 μM of levallorphan. Delta binding sites were labeled using [^3]DADLE (2 nM) and rat brain membranes. Rat membranes were prepared each day using a partially thawed frozen rat brain which was homogenized with a polytron in 10 mL/brain of ice cold 10 mM Tris-HCl, pH 7.0. Membranes were then centrifuged twice at 30,000 g for 10 min and resuspended with ice-cold buffer following each centrifugation. After the second centrifugation, the membranes were resuspended in 50 mM Tris-HCl, pH 7.4 (50 mL/brain) at 25° C. Incubations proceeded for 2 h at 25° C. in 50 mM Tris-HCl pH 7.4, containing 100 mM choline chloride, 3 mM MnCl2, and 100 nM DAMGO to block binding to μ sites, and PIC. Nonspecific binding was determined using 20 μM levallorphan. Kappa binding sites were labeled using [^3H]U69,593 (2 nM). Guinea pig brain membranes were prepared each day using partially thawed guinea pig brain which was homogenized with a polytron in 10 mL/brain of ice cold 10 mM Tris-HCl pH 7.0. The membranes were then centrifuged twice at 30,000 g for 10 min and resuspended with ice-cold buffer following each centrifugation. After the second centrifugation, the membranes were resuspended in 50 mM Tris-HCl, pH 7.4 (75 mL/brain) at 25° C. Incubations proceeded for 2 h at 25° C. in 50 mM Tris-HCl, pH 7.4, containing 1 μg/mL of captopril and PIC. Nonspecific binding was determined using 1 μM U69,593. Each ^3H ligand was displaced by 8–10 concentrations of test drug, two times. Compounds were prepared as 1 mM solution with 10 mM Tris buffer (pH 7.4) containing 10% DMSO before drug dilution. All drug dilutions were done at 10 mM Tris-HCl, pH 7.4, containing 1 mg/mL bovine serum albumin. All washes were done with ice-cold 10 mM Tris-HCl, pH 7.4. The IC50 and slope factor (N) were obtained by using the program MLAB-PC (Civilized Software, Bethesda, Md.). Ki values were calculated according to the equation Ki=IC50/(1+[L]/Kd).

κ1 opioid receptor = molecular target: T2, κ1 opioid receptor (Cavia porcellus, UniProt P41144); experiment: Radioligand binding, kappa sites, displacement of [3H]U69,593 in guinea pig brain membranes
T2 construct: Guinea pig brain membranes were prepared each day using partially thawed guinea pig brain; from tissue; host or cells: guinea pig brain membranes
T2 sequence (P41144 whole entry): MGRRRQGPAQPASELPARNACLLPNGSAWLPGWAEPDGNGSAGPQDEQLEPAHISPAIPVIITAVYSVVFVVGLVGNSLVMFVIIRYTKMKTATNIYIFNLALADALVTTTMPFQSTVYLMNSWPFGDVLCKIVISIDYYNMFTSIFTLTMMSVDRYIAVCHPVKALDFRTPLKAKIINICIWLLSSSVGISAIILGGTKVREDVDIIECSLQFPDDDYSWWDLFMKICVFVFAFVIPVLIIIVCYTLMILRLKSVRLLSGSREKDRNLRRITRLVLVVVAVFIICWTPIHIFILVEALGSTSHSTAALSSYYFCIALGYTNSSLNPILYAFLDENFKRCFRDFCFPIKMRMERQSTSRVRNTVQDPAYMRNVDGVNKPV
Procedure: as §1

[1] = molecular target: T3, δ opioid receptor (DPDPE) in MVD (Mus musculus, UniProt P32300); experiment: Antagonist activity against DPDPE in electrically stimulated mouse vas deferens (MVD); format: cell-based; settings: for antagonist activity DPDPE (δ) MVD IC50 ratio: 1 μM compound, 30 min incubation, IC50 of DPDPE with antagonist divided by control IC50; for Ke selectivity ratio μδ: Ke GPI (μ) over Ke MVD (δ)
T3 construct: Electrically-induced smooth muscle contractions of mouse vas deferens and strips of guinea pig ileum longitudinal muscle myenteric plexus were used; from tissue; host or cells: mouse vas deferens (male ICR mice)
T3 sequence (P32300 whole entry): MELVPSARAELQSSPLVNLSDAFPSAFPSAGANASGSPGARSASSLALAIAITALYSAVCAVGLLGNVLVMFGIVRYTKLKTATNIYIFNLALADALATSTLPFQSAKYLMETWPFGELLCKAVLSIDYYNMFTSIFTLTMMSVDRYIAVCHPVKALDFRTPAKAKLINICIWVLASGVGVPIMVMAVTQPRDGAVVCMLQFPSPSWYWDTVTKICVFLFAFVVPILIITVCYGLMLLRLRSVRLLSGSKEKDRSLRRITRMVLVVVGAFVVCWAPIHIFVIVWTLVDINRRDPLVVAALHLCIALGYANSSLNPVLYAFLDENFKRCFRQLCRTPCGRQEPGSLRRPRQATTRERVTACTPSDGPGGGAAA
Procedure: (§2) Bioassays in GPI and MVD smooth muscle preparations. Electrically-induced smooth muscle contractions of mouse vas deferens and strips of guinea pig ileum longitudinal muscle myenteric plexus were used. Tissues came from maile ICR mice weighing 25–40 g and male Hartley guinea pigs weighing 250–500 g. The tissues were tied to gold chain with suture silk, suspended in 20 mL baths containing 37° C. oxygenated (95% O2, 5% CO2) Krebs bicarbonate solution (magnesium free for the MVD), and allowed to equilibrate for 15 min. The tissues were then stretched to optimal length previously determined to be 1 g tension (0.5 g for MVD) and allowed to equilibrate for 15 min. The tissues were stimulated transmurally between platinum wire electrodes at 0.1 Hz, 0.4 ms pulses (2-ms pulses for MVD), and supramaximal voltage. An initial dose-response curve of DPDPE or PL-017 was constructed at the start of each assay to establish tissue effects, allowing each tissue to be used as its own control.
(§3) Tissues not producing typical results were not used. Experimental compounds were added to the baths in 14–60 μL volumes. Succeeding doses of argonist were added cumulatively to the bath at 3 minute intervals to produce a concentration-response curve. The tissues were then washed extensively with fresh buffer until the original contraction height was re-established. […] Antagonist effects to DPDPE and PL-017 were assayed after incubation of the tissues with 1 μM concentration of the compound in the bath for 30 minutes. The tissues were then washed with fresh buffer for 30 min, and the agonist dose-response curve was repeated. Rightward shifts in the dose-response curves were calculated by dividing the antagonized dose-response curve IC50 value by the unantagoniced IC50 value. IC50 values represent the mean of two to four tissues. IC50 estimates and their associated standard errors were determined by using a computerized nonlinear least-squares method.

[2] = tested on: μ opioid receptor (PL017) in GPI; experiment: Antagonist activity against PL-017 in electrically stimulated guinea pig ileum (GPI); format: cell-based; settings: for antagonist activity PL017 (μ) GPI IC50 ratio: 1 μM compound, 30 min incubation, IC50 of PL-017 with antagonist divided by control IC50; for antagonist activity PL017 (μ) GPI Ke: Ke = [antagonist]/(IC50 ratio − 1), PL-017 as agonist, n = 3
Procedure: as §2, §3

mouse vas deferens = experiment: Agonist activity in MVD smooth muscle preparation, inhibition of contraction; format: cell-based; settings: read-out: agonist activity MVD IC50 (nM) or % max resp
Procedure: as §2, §3

[3] = tested on: guinea pig ileum longitudinal muscle myenteric plexus; experiment: Agonist activity in GPI smooth muscle preparation, inhibition of contraction; format: cell-based; settings: for inhibition at 1 µM: Cavia porcellus, read-out: agonist activity GPI IC50 (nM) or % max resp
Procedure: as §2, §3

δ opioid receptor = δ opioid receptor (Rattus norvegicus, UniProt P33533); experiment: Radioligand binding, delta sites, displacement of [3H]DADLE in rat brain membranes; parameters: Rat membranes were prepared each day using a partially thawed frozen rat brain; from tissue; host or cells: rat brain membranes; settings: for Selectivity Ratio κ1δ / Selectivity Ratio μ/δ: ratio of Ki values
Sequence of δ opioid receptor (P33533 whole entry): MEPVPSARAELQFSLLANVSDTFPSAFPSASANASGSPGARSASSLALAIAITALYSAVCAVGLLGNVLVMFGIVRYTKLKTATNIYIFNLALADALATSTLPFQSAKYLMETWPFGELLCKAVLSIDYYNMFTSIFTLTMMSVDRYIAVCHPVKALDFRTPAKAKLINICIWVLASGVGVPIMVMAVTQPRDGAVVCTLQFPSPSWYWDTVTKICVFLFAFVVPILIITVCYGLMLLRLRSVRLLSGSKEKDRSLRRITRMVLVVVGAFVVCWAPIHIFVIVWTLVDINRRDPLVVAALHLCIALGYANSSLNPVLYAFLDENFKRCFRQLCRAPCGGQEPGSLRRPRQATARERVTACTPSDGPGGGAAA
Procedure: as §1

[4] = pyridomorphinans, [3H]DAMGO (1.4–2.0 nM), rat brain membranes, read-out: Ki (nM) ± SEM μ
[5] = pyridomorphinans, [3H]U69,593 (1.2–2.2 nm), guinea pig brain membranes, read-out: Ki (nM) ± SEM κ1

## Oc1ccc2c3c1OC1c4ncc(Br)cc4CC4(O)C(C2)N(CC2CC2)CCC314 (stereo not drawn) [Compound 7b, 5′-Bromo-17-(cyclopropylmethyl)-6,7-didehydro-3,14-dihydroxy-4,5α-epoxypyrido[2′,3′:6,7]morphinan]
μ opioid receptor
  Ki: 15.5 ± 1 nM
κ1 opioid receptor
  Ki: 55.7 ± 7 nM
[1]
  Kb: 3.1 nM
  antagonist activity DPDPE (δ) MVD IC50 ratio: 325 ± 127
  Ke selectivity ratio μδ: 14
[2]
  antagonist activity PL017 (μ) GPI IC50 ratio: 43.9 ± 25.6
  antagonist activity PL017 (μ) GPI Ke: 23 nM
Mouse vas deferens
  inhibition at 1 µM: 0%
[3]
  inhibition at 1 µM: 0%
δ opioid receptor
  Ki: 1.2 ± 0.13 nM
δ opioid receptor; pyridomorphinans
  Selectivity Ratio κ1δ: 46
  Selectivity Ratio μ/δ: 13

## N#Cc1cnc2c(c1)CC1(O)C3Cc4ccc(O)c5c4C1(CCN3CC1CC1)C2O5 (stereo not drawn) [Compound 7c, 5′-Cyano-17-(cyclopropylmethyl)-6,7-didehydro-3,14-dihydroxy-4,5α-epoxypyrido[2′,3′:6,7]morphinan]
μ opioid receptor
  Ki: 16 ± 1.8 nM
κ1 opioid receptor
  Ki: 33.9 ± 2 nM
[1]
  Kb: 44 nM
  antagonist activity DPDPE (δ) MVD IC50 ratio: 23.6 ± 2.2
[2]
  antagonist activity PL017 (μ) GPI IC50 ratio: 2.2 ± 1.1
Mouse vas deferens
  inhibition at 1 µM: 0%
[3]
  inhibition at 1 µM: 0%
δ opioid receptor
  Ki: 4.5 ± 0.28 nM
δ opioid receptor; pyridomorphinans
  Selectivity Ratio κ1δ: 7.5
  Selectivity Ratio μ/δ: 3.6

## CCOC(=O)c1cnc2c(c1)C[C@@]1(O)[C@H]3Cc4ccc(O)c5c4[C@@]1(CCN3CC1CC1)[C@H]2O5 [Compound 7d, 5′-Carbethoxy-17-(cyclopropylmethyl)-6,7-didehydro-3,14-dihydroxy-4,5α-epoxypyrido[2′,3′:6,7]morphinan]
μ opioid receptor; [4]
  Ki: 37 ± 3.4 nM
κ1 opioid receptor; [5]
  Ki: 9.6 ± 0.93 nM
[1]
  Kb: 20 nM
[2]
  antagonist activity PL017 (μ) GPI Ke: 74 nM
Mouse vas deferens
  inhibition at 1 µM: 0%
[3]
  inhibition at 1 µM: 0%

## O=[N+]([O-])c1cnc2c(c1)CC1(O)C3Cc4ccc(O)c5c4C1(CCN3CC1CC1)C2O5 (stereo not drawn) [Compound 7e, 17-(Cyclopropylmethyl)-6,7-didehydro-3,14-dihydroxy-4,5α-epoxy-5′-nitropyrido[2′,3′:6,7]morphinan]
μ opioid receptor
  Ki: 17.5 ± 2 nM
κ1 opioid receptor
  Ki: 92 ± 12.8 nM
[1]
  Kb: 51 nM
  antagonist activity DPDPE (δ) MVD IC50 ratio: 20.7 ± 4.2
  Ke selectivity ratio μδ: 5.3
[2]
  antagonist activity PL017 (μ) GPI IC50 ratio: 4.7 ± 0.59
  antagonist activity PL017 (μ) GPI Ke: 271 nM
Mouse vas deferens
  inhibition at 1 µM: 14%
[3]
  inhibition at 1 µM: 0%
δ opioid receptor
  Ki: 5.5 ± 0.67 nM
δ opioid receptor; pyridomorphinans
  Selectivity Ratio κ1δ: 17
  Selectivity Ratio μ/δ: 3.2

## Nc1cnc2c(c1)C[C@@]1(O)[C@H]3Cc4ccc(O)c5c4[C@@]1(CCN3CC1CC1)[C@H]2O5 [Compound 7f, 5′-Amino-17-(cyclopropylmethyl)-6,7-didehydro-3,14-dihydroxy-4,5α-epoxypyrido[2′,3′:6,7]morphinan]
μ opioid receptor; [4]
  Ki: 12.8 ± 0.93 nM
κ1 opioid receptor; [5]
  Ki: 12 ± 1.2 nM
[1]
  Kb: 26 nM
  antagonist activity DPDPE (δ) MVD IC50 ratio: 43.3 ± 9.0
  Ke selectivity ratio μδ: 1.9
[2]
  antagonist activity PL017 (μ) GPI IC50 ratio: 23.4 ± 4.8
  antagonist activity PL017 (μ) GPI Ke: 49 nM
Mouse vas deferens
  inhibition at 1 µM: 6%
[3]
  inhibition at 1 µM: 0%
δ opioid receptor; pyridomorphinans, [3H]DADLE (1.3–2.0 nM), rat brain membranes, 100 nM DAMGO to block μ-sites, read-out: Ki (nM) ± SEM δ
  Ki: 8 ± 0.3 nM
δ opioid receptor; pyridomorphinans
  Selectivity Ratio κ1δ: 1.5
  Selectivity Ratio μ/δ: 1.6

## Nc1sc2c(c1C(=O)OCc1ccccc1)[C@@H]1Oc3c(O)ccc4c3[C@@]13CCN(CC1CC1)[C@H](C4)[C@]3(O)C2 [Compound 8d, 5′-Amino-4′-benzyloxycarbonyl-17-(cyclopropylmethyl)-6,7-didehydro-3,14-dihydroxy-4,5α-epoxythieno[2′,3′:7,6]morphinan]
μ opioid receptor
  Ki: 61 ± 3 nM
κ1 opioid receptor
  Ki: 48 ± 3 nM
[1]
  Kb: 5 nM
  antagonist activity DPDPE (δ) MVD IC50 ratio: 289 ± 13
Mouse vas deferens
  inhibition at 1 µM: 11%
[3]
  inhibition at 1 µM: 40%
[3]; percentage inhibition of contraction at 1 μM
  agonist activity GPI IC50 (nM) or % max resp: 40%
δ opioid receptor
  Ki: 7 ± 0.3 nM
δ opioid receptor; thienomorphinans
  Selectivity Ratio κ1δ: 6.9
  Selectivity Ratio μ/δ: 8.7
